Results from the kinase profiling compilation of Christmann-Franck et al. (2016).

Columns and labels:
Assay in all cases: KINOMEscan competition binding
Settings in all cases: compound 10.0 µM
[1] = tested on: ABL1 (human), P00519 [Y253F]
GSK3B (human) = GSK3B (human) (UniProt P49841)
PRKCD (human) = PRKCD (human) (UniProt Q05655)
TEC (human) = TEC (human) (UniProt P42680)
MARK4 (human) = MARK4 (human) (UniProt Q96L34)
MST1R (human) = MST1R (human) (UniProt Q04912)
PIK3CB (human) = PIK3CB (human) (UniProt P42338)
CLK2 (human) = CLK2 (human) (UniProt P49760)
Sequence of CLK2 (human) (P49760 whole entry, looked up): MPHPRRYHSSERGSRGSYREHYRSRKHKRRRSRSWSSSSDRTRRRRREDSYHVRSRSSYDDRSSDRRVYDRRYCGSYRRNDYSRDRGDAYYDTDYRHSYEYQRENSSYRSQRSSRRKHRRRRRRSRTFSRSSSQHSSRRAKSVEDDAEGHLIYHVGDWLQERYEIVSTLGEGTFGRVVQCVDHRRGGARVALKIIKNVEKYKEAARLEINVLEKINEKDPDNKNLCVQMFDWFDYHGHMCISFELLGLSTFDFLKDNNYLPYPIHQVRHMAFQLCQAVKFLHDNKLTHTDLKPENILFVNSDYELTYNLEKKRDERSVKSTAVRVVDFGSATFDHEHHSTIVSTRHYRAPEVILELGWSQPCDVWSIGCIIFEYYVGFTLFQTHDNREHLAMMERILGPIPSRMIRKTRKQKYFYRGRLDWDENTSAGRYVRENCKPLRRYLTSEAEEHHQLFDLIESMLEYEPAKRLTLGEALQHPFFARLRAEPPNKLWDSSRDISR

NEK9 (human) = NEK9 (human) (UniProt Q8TD19)
AAK1 (human) = AAK1 (human) (UniProt Q2M2I8)
PRKCE (human) = PRKCE (human) (UniProt Q02156)
CDK19 (human) = CDK19 (human) (UniProt Q9BWU1)
CAMK2D (human) = CAMK2D (human) (UniProt Q13557)
CDK9 (human) = CDK9 (human) (UniProt P50750)
RAF1 (human) = RAF1 (human) (UniProt P04049)
IKBKE (human) = IKBKE (human) (UniProt Q14164)
Sequence of IKBKE (human) (Q14164 whole entry, looked up): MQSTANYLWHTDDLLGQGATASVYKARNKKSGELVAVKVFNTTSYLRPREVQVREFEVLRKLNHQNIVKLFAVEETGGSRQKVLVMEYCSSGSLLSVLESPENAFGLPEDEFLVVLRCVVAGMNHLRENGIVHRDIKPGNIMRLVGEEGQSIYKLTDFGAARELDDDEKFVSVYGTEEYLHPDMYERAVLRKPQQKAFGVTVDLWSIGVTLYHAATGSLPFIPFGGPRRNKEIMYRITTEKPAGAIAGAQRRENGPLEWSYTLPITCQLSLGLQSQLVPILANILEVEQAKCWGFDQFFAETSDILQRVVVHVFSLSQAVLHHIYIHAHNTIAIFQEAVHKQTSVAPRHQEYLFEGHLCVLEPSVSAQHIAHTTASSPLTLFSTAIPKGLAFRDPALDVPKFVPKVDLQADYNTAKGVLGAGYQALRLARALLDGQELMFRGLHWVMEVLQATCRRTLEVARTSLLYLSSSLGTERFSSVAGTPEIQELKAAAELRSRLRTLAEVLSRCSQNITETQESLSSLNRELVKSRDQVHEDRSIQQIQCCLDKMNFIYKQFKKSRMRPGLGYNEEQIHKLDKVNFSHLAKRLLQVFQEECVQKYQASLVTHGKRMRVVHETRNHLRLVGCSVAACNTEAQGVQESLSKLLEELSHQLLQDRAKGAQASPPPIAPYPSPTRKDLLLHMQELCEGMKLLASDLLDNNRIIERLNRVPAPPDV

STK36 (human) = STK36 (human) (UniProt Q9NRP7)
Sequence of STK36 (human) (Q9NRP7 whole entry, looked up): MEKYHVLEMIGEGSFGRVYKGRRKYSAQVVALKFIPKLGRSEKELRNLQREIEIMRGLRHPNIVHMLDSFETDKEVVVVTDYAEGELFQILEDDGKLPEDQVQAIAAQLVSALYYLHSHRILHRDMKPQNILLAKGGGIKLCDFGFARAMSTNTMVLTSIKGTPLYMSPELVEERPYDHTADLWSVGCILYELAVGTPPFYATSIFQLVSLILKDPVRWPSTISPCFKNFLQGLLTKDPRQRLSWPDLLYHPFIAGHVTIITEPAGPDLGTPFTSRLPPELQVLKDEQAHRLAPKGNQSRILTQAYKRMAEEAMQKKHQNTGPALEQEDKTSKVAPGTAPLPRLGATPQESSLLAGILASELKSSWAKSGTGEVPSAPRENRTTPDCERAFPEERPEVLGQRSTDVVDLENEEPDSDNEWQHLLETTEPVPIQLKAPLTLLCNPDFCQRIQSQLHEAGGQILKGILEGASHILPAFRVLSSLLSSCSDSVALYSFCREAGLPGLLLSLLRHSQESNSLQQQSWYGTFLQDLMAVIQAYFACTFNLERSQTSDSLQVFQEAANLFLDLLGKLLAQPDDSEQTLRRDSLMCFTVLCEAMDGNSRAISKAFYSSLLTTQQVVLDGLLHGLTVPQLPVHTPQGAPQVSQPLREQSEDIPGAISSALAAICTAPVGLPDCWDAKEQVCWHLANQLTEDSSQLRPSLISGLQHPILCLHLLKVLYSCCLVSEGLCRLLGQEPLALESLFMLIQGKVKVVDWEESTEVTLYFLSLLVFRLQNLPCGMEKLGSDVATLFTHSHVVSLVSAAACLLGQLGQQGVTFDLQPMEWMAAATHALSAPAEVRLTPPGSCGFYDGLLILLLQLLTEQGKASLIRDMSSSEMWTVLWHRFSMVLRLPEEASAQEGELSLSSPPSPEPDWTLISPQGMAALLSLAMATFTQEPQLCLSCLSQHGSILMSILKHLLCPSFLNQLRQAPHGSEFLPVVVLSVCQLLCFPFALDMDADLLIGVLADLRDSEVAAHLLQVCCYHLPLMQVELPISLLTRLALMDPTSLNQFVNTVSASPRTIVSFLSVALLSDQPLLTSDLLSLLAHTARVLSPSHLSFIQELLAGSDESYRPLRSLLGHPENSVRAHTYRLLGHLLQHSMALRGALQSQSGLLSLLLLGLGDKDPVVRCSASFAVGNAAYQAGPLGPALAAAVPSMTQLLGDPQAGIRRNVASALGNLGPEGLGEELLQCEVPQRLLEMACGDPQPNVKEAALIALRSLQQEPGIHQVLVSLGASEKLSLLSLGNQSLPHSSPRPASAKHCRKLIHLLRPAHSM

MAPK3 (human) = MAPK3 (human) (UniProt P27361)
PRKD2 (human) = PRKD2 (human) (UniProt Q9BZL6)
ULK1 (human) = ULK1 (human) (UniProt O75385)
PRKD1 (human) = PRKD1 (human) (UniProt Q15139)
MYLK4 (human) = MYLK4 (human) (UniProt Q86YV6)
MAP3K12 (human) = MAP3K12 (human) (UniProt Q12852)
Sequence of MAP3K12 (human) (Q12852 whole entry, looked up): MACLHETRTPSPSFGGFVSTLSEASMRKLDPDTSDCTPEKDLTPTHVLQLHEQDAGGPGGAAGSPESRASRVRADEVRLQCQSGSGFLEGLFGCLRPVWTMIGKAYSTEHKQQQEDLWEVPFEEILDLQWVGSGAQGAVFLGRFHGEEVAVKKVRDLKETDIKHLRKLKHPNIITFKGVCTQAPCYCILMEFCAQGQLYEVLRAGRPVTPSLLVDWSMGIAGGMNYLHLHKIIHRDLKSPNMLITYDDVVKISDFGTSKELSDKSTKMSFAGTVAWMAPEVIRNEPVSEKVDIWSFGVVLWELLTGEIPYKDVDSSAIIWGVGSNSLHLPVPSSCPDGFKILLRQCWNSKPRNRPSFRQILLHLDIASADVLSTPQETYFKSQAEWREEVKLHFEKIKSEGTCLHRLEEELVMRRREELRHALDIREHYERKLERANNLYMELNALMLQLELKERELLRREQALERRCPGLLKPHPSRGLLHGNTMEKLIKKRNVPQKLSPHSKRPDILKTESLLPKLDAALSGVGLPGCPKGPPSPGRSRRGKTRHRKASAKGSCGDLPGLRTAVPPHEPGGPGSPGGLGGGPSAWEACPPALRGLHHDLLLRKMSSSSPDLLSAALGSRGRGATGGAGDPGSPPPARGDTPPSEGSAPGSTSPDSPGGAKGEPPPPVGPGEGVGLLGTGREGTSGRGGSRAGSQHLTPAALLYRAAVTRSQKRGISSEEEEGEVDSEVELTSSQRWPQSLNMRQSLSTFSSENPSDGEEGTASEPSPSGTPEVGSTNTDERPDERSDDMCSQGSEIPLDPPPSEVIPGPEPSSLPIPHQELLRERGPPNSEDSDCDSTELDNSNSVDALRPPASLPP

BMPR2 (human) = BMPR2 (human) (UniProt Q13873)
CDK2 (human) = CDK2 (human) (UniProt P24941)
IGF1R (human) = IGF1R (human) (UniProt P08069)
AKT1 (human) = AKT1 (human) (UniProt P31749)
CSNK1G2 (human) = CSNK1G2 (human) (UniProt P78368)
Sequence of CSNK1G2 (human) (P78368 whole entry, looked up): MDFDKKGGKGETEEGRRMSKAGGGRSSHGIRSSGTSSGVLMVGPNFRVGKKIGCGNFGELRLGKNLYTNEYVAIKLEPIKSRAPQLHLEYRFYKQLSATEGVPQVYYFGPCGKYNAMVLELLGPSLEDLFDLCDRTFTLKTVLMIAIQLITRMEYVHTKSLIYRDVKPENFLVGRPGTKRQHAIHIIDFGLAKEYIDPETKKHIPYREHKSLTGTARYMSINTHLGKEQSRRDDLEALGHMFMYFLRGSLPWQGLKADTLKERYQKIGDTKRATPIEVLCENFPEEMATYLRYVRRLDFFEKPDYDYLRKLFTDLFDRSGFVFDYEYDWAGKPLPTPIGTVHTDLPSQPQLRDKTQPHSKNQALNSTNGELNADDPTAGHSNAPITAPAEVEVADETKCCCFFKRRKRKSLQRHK

CDK8 (human) = CDK8 (human) (UniProt P49336)
EPHB1 (human) = EPHB1 (human) (UniProt P54762)
PRKG2 (human) = PRKG2 (human) (UniProt Q13237)
Sequence of PRKG2 (human) (Q13237 whole entry, looked up): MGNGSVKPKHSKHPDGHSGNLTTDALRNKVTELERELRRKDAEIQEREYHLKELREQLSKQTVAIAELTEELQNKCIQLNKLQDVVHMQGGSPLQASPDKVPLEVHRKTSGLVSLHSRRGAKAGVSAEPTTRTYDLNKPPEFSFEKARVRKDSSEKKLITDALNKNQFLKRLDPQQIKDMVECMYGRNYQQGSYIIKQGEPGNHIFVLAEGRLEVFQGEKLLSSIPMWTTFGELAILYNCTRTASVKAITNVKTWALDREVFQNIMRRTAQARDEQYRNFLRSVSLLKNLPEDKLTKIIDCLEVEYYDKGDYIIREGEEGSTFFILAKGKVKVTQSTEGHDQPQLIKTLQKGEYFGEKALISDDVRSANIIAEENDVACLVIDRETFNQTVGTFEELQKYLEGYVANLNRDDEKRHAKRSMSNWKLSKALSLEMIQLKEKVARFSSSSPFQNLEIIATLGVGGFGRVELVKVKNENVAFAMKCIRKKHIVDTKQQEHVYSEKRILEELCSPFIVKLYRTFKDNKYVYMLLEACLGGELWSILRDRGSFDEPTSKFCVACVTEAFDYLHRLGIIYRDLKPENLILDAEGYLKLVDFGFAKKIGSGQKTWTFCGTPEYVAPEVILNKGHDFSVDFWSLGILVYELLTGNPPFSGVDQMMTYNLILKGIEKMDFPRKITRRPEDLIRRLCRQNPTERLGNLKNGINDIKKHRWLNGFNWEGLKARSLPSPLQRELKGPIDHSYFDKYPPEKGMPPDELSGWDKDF

RIOK1 (human) = RIOK1 (human) (UniProt Q9BRS2)
CDK5 (human) = CDK5 (human) (UniProt Q00535)
PTK2B (human) = PTK2B (human) (UniProt Q14289)

Sequence of GSK3B (human) (P49841 whole entry, looked up): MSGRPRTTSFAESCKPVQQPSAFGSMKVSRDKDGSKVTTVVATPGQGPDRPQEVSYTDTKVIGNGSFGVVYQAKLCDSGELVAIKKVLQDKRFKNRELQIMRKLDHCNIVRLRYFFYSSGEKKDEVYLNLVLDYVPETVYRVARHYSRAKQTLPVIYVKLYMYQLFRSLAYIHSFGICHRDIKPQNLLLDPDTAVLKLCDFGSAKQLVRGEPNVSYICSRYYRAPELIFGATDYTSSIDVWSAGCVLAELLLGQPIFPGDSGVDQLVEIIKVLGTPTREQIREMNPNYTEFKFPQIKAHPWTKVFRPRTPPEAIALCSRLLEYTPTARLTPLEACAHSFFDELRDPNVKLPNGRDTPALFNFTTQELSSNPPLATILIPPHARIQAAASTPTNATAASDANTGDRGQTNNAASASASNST

kinase still bound, per cent of control [1] [%] | kinase still bound, per cent of control (GSK3B (human)) [%] | kinase still bound, per cent of control (PRKCD (human)) [%] | kinase still bound, per cent of control (TEC (human)) [%] | kinase still bound, per cent of control (MARK4 (human)) [%] | kinase still bound, per cent of control (CLK2 (human)) [%] | kinase still bound, per cent of control (AAK1 (human)) [%] | kinase still bound, per cent of control (PRKCE (human)) [%] | kinase still bound, per cent of control (CDK19 (human)) [%] | kinase still bound, per cent of control (CAMK2D (human)) [%] | kinase still bound, per cent of control (CDK9 (human)) [%] | kinase still bound, per cent of control (RAF1 (human)) [%] | kinase still bound, per cent of control (IKBKE (human)) [%] | kinase still bound, per cent of control (STK36 (human)) [%] | kinase still bound, per cent of control (MAPK3 (human)) [%] | kinase still bound, per cent of control (PRKD2 (human)) [%] | kinase still bound, per cent of control (PRKD1 (human)) [%] | kinase still bound, per cent of control (MYLK4 (human)) [%] | kinase still bound, per cent of control (MAP3K12 (human)) [%] | Structure (SMILES) | kinase still bound, per cent of control (NEK9 (human)) [%] | further results
12 | 100 | 15 | 2.6 | 4 | 4.7 | 11 | 18 | 100 | 100 | 100 | 100 | 100 | 100 | 100 | 100 | 100 | 100 | 0.4 | CNC(=O)c1ccc(Nc2cc(Nc3ccccc3S(=O)(=O)C(C)C)c3cc[nH]c3n2)nc1 | 100 | kinase still bound, per cent of control (MST1R (human)): 100%; kinase still bound, per cent of control (PIK3CB (human)): 100%; kinase still bound, per cent of control (CDK5 (human)): 28%; kinase still bound, per cent of control (PTK2B (human)): 0.1%; kinase still bound, per cent of control (ULK1 (human)): 7.2%; kinase still bound, per cent of control (BMPR2 (human)): 7.9%; kinase still bound, per cent of control (CDK2 (human)): 100%; kinase still bound, per cent of control (IGF1R (human)): 2.2%; kinase still bound, per cent of control (AKT1 (human)): 100%; kinase still bound, per cent of control (CSNK1G2 (human)): 3.1%; kinase still bound, per cent of control (CDK8 (human)): 100%; kinase still bound, per cent of control (EPHB1 (human)): 100%; kinase still bound, per cent of control (PRKG2 (human)): 25%; kinase still bound, per cent of control (RIOK1 (human)): 2%
100 | 100 | 100 | 100 | 100 | 100 | 100 | 100 | 100 | 100 | 100 | 100 | 100 | 100 | 100 | 100 | 100 | 100 | 100 | CCN(CC)CCCCNc1ncc2cc(-c3cc(OC)cc(OC)c3)c(NC(=O)NC(C)(C)C)nc2n1 | 100 | kinase still bound, per cent of control (CDK5 (human)): 100%; kinase still bound, per cent of control (PTK2B (human)): 100%; kinase still bound, per cent of control (BMPR2 (human)): 100%; kinase still bound, per cent of control (CDK2 (human)): 100%; kinase still bound, per cent of control (IGF1R (human)): 100%; kinase still bound, per cent of control (AKT1 (human)): 100%; kinase still bound, per cent of control (CSNK1G2 (human)): 100%; kinase still bound, per cent of control (CDK8 (human)): 100%; kinase still bound, per cent of control (EPHB1 (human)): 100%; kinase still bound, per cent of control (PRKG2 (human)): 100%; kinase still bound, per cent of control (RIOK1 (human)): 100%
13 | 100 | 100 | 7.2 | 100 | 100 | 100 | 100 | 100 | 100 | 100 | 100 | 100 | 100 | 100 | 100 | 100 | 100 | 100 | C=CC(=O)Nc1ccc(CN(C(=O)Nc2c(Cl)c(OC)cc(OC)c2Cl)c2cc(Nc3ccc(N4CCN(C)CC4)cc3)ncn2)cc1 | 100 | kinase still bound, per cent of control (MST1R (human)): 100%; kinase still bound, per cent of control (PIK3CB (human)): 100%; kinase still bound, per cent of control (CDK5 (human)): 100%; kinase still bound, per cent of control (PTK2B (human)): 100%; kinase still bound, per cent of control (ULK1 (human)): 100%; kinase still bound, per cent of control (BMPR2 (human)): 8.9%; kinase still bound, per cent of control (CDK2 (human)): 100%; kinase still bound, per cent of control (IGF1R (human)): 16%; kinase still bound, per cent of control (AKT1 (human)): 100%; kinase still bound, per cent of control (CSNK1G2 (human)): 100%; kinase still bound, per cent of control (CDK8 (human)): 100%; kinase still bound, per cent of control (EPHB1 (human)): 100%; kinase still bound, per cent of control (PRKG2 (human)): 100%; kinase still bound, per cent of control (RIOK1 (human)): 100%

Structure (SMILES) | kinase still bound, per cent of control [1] [%] | kinase still bound, per cent of control (GSK3B (human)) [%] | kinase still bound, per cent of control (PRKCD (human)) [%] | kinase still bound, per cent of control (TEC (human)) [%] | kinase still bound, per cent of control (MARK4 (human)) [%] | kinase still bound, per cent of control (CLK2 (human)) [%] | kinase still bound, per cent of control (AAK1 (human)) [%] | kinase still bound, per cent of control (PRKCE (human)) [%] | kinase still bound, per cent of control (CDK19 (human)) [%] | kinase still bound, per cent of control (CAMK2D (human)) [%] | kinase still bound, per cent of control (CDK9 (human)) [%] | kinase still bound, per cent of control (RAF1 (human)) [%] | kinase still bound, per cent of control (IKBKE (human)) [%] | kinase still bound, per cent of control (STK36 (human)) [%] | kinase still bound, per cent of control (MAPK3 (human)) [%] | kinase still bound, per cent of control (PRKD2 (human)) [%] | kinase still bound, per cent of control (PRKD1 (human)) [%] | kinase still bound, per cent of control (MYLK4 (human)) [%] | kinase still bound, per cent of control (MAP3K12 (human)) [%] | kinase still bound, per cent of control (NEK9 (human)) [%] | further results
Cc1n[nH]c2ccc(-c3cncc(OC[C@@H](N)Cc4c[nH]c5ccccc45)c3)cc12 | 100 | 1 | 0.85 | 100 | 100 | 0.05 | 1.8 | 0 | 0.5 | 2.5 | 1.9 | 100 | 24 | 100 | 100 | 0 | 2 | 3 | 100 | 100 | kinase still bound, per cent of control (MST1R (human)): 100%; kinase still bound, per cent of control (PIK3CB (human)): 100%; kinase still bound, per cent of control (ULK1 (human)): 22%; kinase still bound, per cent of control (BMPR2 (human)): 100%; kinase still bound, per cent of control (CDK2 (human)): 100%; kinase still bound, per cent of control (IGF1R (human)): 100%; kinase still bound, per cent of control (AKT1 (human)): 1.8%; kinase still bound, per cent of control (CSNK1G2 (human)): 0.65%; kinase still bound, per cent of control (CDK8 (human)): 9.6%; kinase still bound, per cent of control (EPHB1 (human)): 100%; kinase still bound, per cent of control (PRKG2 (human)): 5.7%; kinase still bound, per cent of control (RIOK1 (human)): 2.8%
